This passage reports IC50 results from patent publication US12637472B2, “Benzimidazole heteroatom-containing spiro compound and medicinal use thereof” (Changzhi University, priority 2023, dated 2026).

Common to all, as to assay type: cell-based
Assay [1] deals with human colon cancer cells HCT116. The assay is described as follows: MTT in vitro cell proliferation inhibition experiment, HCT116. To be noted: 48 h contact between compound and cell, read-out: Antiproliferative activity (IC50, μM) HCT116. How it is done:
(§1) Human liver tumor cells HepG2, human colon cancer cells HCT116, and human gastric adenocarcinoma cells AGS were purchased from the Institute of Basic Medical Sciences, Chinese Academy of Medical Sciences. The cells each were preserved and passaged in the laboratory of the present disclosure according to respective cultivation data. Each cell line was routinely inoculated in a 50 mL cell culture flask, and cultivated with a 10% fetal bovine serum-containing DMEM/IRP-1640 medium at 37° C., 5% CO2, and 100% humidity, where the medium was changed daily. When growing to a confluency of 80% to 90%, cells were digested with a mixture of trypsin and EDTA and passaged according to 1:3.
(§2) An in vitro cell activity and proliferation inhibition experiment was conducted by an MTT method to investigate an impact of a target compound on a survival activity of each cell. Cells at a logarithmic growth phase were inoculated at 5×10^3 cells (100 μL)/well in a 96-well culture plate and cultivated for 24 h, and then compound solutions with different concentrations prepared in advance were added (100 μL) to the plate. At least 3 replicate wells were set for each concentration. A solvent control group without a compound and a blank control group without a cell were set. Edge wells each were filled with 200 μL of sterilized water. […] A liquid in each well was completely removed carefully, 150 μL of DMSO was added to each well, the plate was gently shaken on a microshaker for 10 min to make a purple crystal fully dissolved, and then an absorbance value was determined at 570 nm by a microplate reader. With a cell viability of the solvent control group without a compound as 100%, a cell survival rate was calculated as follows: a cell survival rate=(an absorbance value of a compound group−an absorbance value of the blank control group)/(an absorbance value of the control group−an absorbance value of the blank control group)×100%. A half-maximal inhibitory concentration (IC50) of a compound for a cell was calculated by the Graphpad Prism 5 software.

In assay [2] the test system is Human liver tumor cells HepG2. The assay is described as follows: MTT in vitro cell proliferation inhibition experiment, HepG2. To be noted: MTT method, 48 h contact between compound and cell, read-out: Antiproliferative activity (IC50, μM) HepG2. How it is done: as §1, §2
Background: Tetrazolium assays rely on reduction of a dye to a coloured formazan, in cell work by metabolically active cells.

In assay [3] the test system is human gastric adenocarcinoma cells AGS. The assay is described as follows: MTT in vitro cell proliferation inhibition experiment, AGS. To be noted: MTT method, 48 h contact between compound and cell, read-out: Antiproliferative activity (IC50, μM) AGS. As to the method:
as §1, §2

Where [4] appears, read: Homo sapiens, HCT-116, MTT method.

Like-named read-outs stand apart in the source and are kept apart here. A value given as a limit tells only on which side of the number the result lay.

One may read the IC50 as the concentration that inhibits the measured activity by half. Regarding `Cc1ccc(C2C(c3c[nH]c4ccccc34)NC3(C(=O)c4ccccc4C3=O)C2C(=O)c2nc3ccccc3[nH]2)cc1` (stereo not drawn) [Compound 44, 3-(1H-benzimidazol-2-carbonyl)-5-(1H-indol-3-yl)-4-p-tolylspiro[inden-2,2′-pyrrolidine]-1,3-dione], the IC50 in assay [1] (setting [4]) is 5.34 µM; in assay [2] (Homo sapiens), 5.67 µM; in assay [3] (Homo sapiens), 6.02 µM.
Taken in the same sequence, the figures for `CCOc1ccc(C2C(c3c[nH]c4ccccc34)NC3(C(=O)c4ccccc4C3=O)C2C(=O)c2nc3ccccc3[nH]2)cc1OCC` (stereo not drawn) [Compound 45, 3-(1H-benzimidazol-2-carbonyl)-3,4-diethoxyphenyl-5-(1H-indol-3-yl)spiro[inden-2,2′-pyrrolidine]-1,3-dione] were 56.4 µM, > 100 µM and > 100 µM.
Taken in the same sequence, the figures for `O=C(c1nc2ccccc2[nH]1)C1C(c2cccc(Br)c2)C(c2c[nH]c3ccccc23)NC12C(=O)c1ccccc1C2=O` (stereo not drawn) [Compound 46, 3-(1H-benzimidazol-2-carbonyl)-4-(3-bromophenyl)-5-(1H-indol-3-yl)spiro[inden-2,2′-pyrrolidine]-1,3-dione] were 18.4 µM, 12.2 µM and 21.4 µM.
Taken in the same sequence, the figures for `CCOc1ccc(C2C(c3c[nH]c4ccccc34)NC3(C(=O)c4ccccc4C3=O)C2C(=O)c2nc3ccccc3[nH]2)cc1` (stereo not drawn) [Compound 47] were 39.8 µM, 34.6 µM and 38 µM.
As to `O=C(c1nc2ccccc2[nH]1)C1C(c2ccc(Br)cc2)C(c2c[nH]c3ccccc23)NC12C(=O)c1ccccc1C2=O` (stereo not drawn) [Compound 48], the IC50 in assay [1] (setting [4]) amounted to 37.8 µM; in assay [2] (Homo sapiens) it was 40.2 µM; in assay [3] (Homo sapiens) it was 44.2 µM.
`COc1ccc(C2=N[C@@H](c3ccc(Cl)cc3)[C@@H](c3ccc(Cl)cc3)N2C(=O)N2CCNC(=O)C2)c(OC(C)C)c1` [Nutlin-3a, reference compound]: the figures for the IC50 in assay [1] (MTT method), in assay [2] and in assay [3] were 21.7 µM, 11 µM and 21.4 µM, respectively.
